Assay results: patent US11053204B2, “Pyrimidinyloxy benzene derivatives as herbicides” (FMC Corporation, priority 2015, dated 2021)

Legend:
Type in all cases: in vivo
[1] = tested on: windgrass (Apera spica-venti); assay: Test C preemergence, plant response rating
[2] = tested on: pigweed, palmer (palmer pigweed, Amaranthus palmeri); assay: Test C preemergence, plant response rating
[3] = tested on: speedwell (bird's-eye speedwell, Veronica persica); assay: Test C postemergence, plant response rating; conditions: for Speedwell plant response rating: scale 0 to 100 (0 no effect, 100 complete control)
In short: (§1)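 Both timings shared one formulation, a non-phytotoxic solvent mixture with surfactant, and a greenhouse period of 13 to 15 d. Preemergence used seeded loam/sand or silt loam soil, postemergence used 2 to 18 cm plants; visual ratings ran from 0 (no effect) to 100 (complete control).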

[4] = tested on: pigweed, palmer (palmer pigweed, Amaranthus palmeri); assay: Test C postemergence, plant response rating; conditions: for Pigweed, Palmer plant response rating: scale 0 to 100 (0 no effect, 100 complete control)
In short: as §1

[5] = tested on: Canada thistle (Cirsium arvense); assay: Test C postemergence, plant response rating; conditions: for Canada Thistle plant response rating: scale 0 to 100 (0 no effect, 100 complete control)
In short: as §1

[6] = tested on: wild mustard (Sinapis arvensis); assay: Test C postemergence, plant response rating; conditions: for Mustard, Wild plant response rating: scale 0 to 100 (0 no effect, 100 complete control)
In short: as §1

[7] = tested on: surinam grass (Brachiaria decumbens); assay: Test C postemergence, plant response rating
In short: as §1

[8] = tested on: field violet (Viola arvensis); assay: Test C postemergence, plant response rating; conditions: for Field Violet plant response rating: scale 0 to 100 (0 no effect, 100 complete control)
In short: as §1

[9] = tested on: wild poinsettia (Euphorbia heterophylla); assay: Test C postemergence, plant response rating; conditions: for Poinsettia, Wild plant response rating: scale 0 to 100 (0 no effect, 100 complete control)
In short: as §1

[10] = tested on: johnsongrass (Sorghum halepense); assay: Test C postemergence, plant response rating; conditions: for Johnsongrass plant response rating: scale 0 to 100 (0 no effect, 100 complete control)
In short: as §1

[11] = tested on: windgrass (Apera spica-venti); assay: Test C postemergence, plant response rating
In short: as §1

[12] = tested on: geranium, cutleaf (cutleaf geranium, Geranium dissectum); assay: Test C postemergence, plant response rating; conditions: for Geranium, Cutleaf plant response rating: scale 0 to 100 (0 no effect, 100 complete control)
In short: as §1

[13] = tested on: nightshade (eastern black nightshade, Solanum ptycanthum); assay: Test C postemergence, plant response rating; conditions: for Nightshade plant response rating: scale 0 to 100 (0 no effect, 100 complete control)
In short: as §1

[14] = tested on: field poppy (Papaver rhoeas); assay: Test C postemergence, plant response rating; conditions: for Field Poppy plant response rating: scale 0 to 100 (0 no effect, 100 complete control)
In short: as §1

[15] = tested on: buckwheat, wild (wild buckwheat, Polygonum convolvulus); assay: Test C postemergence, plant response rating; conditions: for Buckwheat, Wild plant response rating: scale 0 to 100 (0 no effect, 100 complete control)
In short: as §1

[16] = tested on: johnsongrass (Sorghum halepense); assay: Test C preemergence, plant response rating
[17] = tested on: wild poinsettia (Euphorbia heterophylla); assay: Test C preemergence, plant response rating
[18] = 125 g ai/ha, scale 0 to 100 (0 no effect, 100 complete control)

**Q.** For `O=C(CCCC(F)(F)F)c1c(Cl)cccc1Oc1ncc(Cl)cn1` [Compound 143], which “Plant response rating, Windgrass” value ([1]; 31 g ai/ha, scale 0 to 100) is on record?
**A.** 85

**Q.** And the “Plant response rating, Windgrass” value ([1]; 62 g ai/ha, scale 0 to 100)?
**A.** 100

**Q.** What about the “Plant response rating, Windgrass” value ([1]; 125 g ai/ha, scale of 0 to 100) of the same molecule?
**A.** 100

**Q.** And the “Plant response rating, Pigweed, Palmer” value ([2]; 31 g ai/ha, scale 0 to 100)?
**A.** 100

**Q.** And the “Plant response rating, Pigweed, Palmer” value ([2]; 62 g ai/ha, scale 0 to 100)?
**A.** 100

**Q.** And the “Plant response rating, Pigweed, Palmer” value ([2]; 125 g ai/ha, scale of 0 to 100)?
**A.** 100

**Q.** And the “Plant response rating, Speedwell” value ([3]; 16 g ai/ha, scale of 0 to 100)?
**A.** 80

**Q.** What about the “Plant response rating, Speedwell” value ([3]; 31 g ai/ha, scale 0 to 100) of the same molecule?
**A.** 80

**Q.** What about the “Speedwell plant response rating” value ([3]; 62 g ai/ha) of the same molecule?
**A.** 85

**Q.** What about the “Speedwell plant response rating” value ([3]; 125 g ai/ha) of the same molecule?
**A.** 100

**Q.** What about the “Plant response rating, Pigweed, Palmer” value ([4]; 16 g ai/ha, scale of 0 to 100) of the same molecule?
**A.** 45

**Q.** What about the “Plant response rating, Pigweed, Palmer” value ([4]; 31 g ai/ha, scale 0 to 100) of the same molecule?
**A.** 75

**Q.** And the “Pigweed, Palmer plant response rating” value ([4]; 62 g ai/ha)?
**A.** 80

**Q.** What about the “Pigweed, Palmer plant response rating” value ([4]; 125 g ai/ha) of the same molecule?
**A.** 100

**Q.** And the “Plant response rating, Canada Thistle” value ([5]; 16 g ai/ha, scale of 0 to 100)?
**A.** 85

**Q.** What about the “Plant response rating, Canada Thistle” value ([5]; 31 g ai/ha, scale 0 to 100) of the same molecule?
**A.** 85

**Q.** And the “Canada Thistle plant response rating” value ([5]; 62 g ai/ha)?
**A.** 90

**Q.** What about the “Canada Thistle plant response rating” value ([5]; 125 g ai/ha) of the same molecule?
**A.** 100

**Q.** And the “Plant response rating, Mustard, Wild” value ([6]; 16 g ai/ha, scale of 0 to 100)?
**A.** 100

**Q.** And the “Plant response rating, Mustard, Wild” value ([6]; 31 g ai/ha, scale 0 to 100)?
**A.** 100

**Q.** What about the “Mustard, Wild plant response rating” value ([6]; 62 g ai/ha) of the same molecule?
**A.** 100

**Q.** What about the “Mustard, Wild plant response rating” value ([6]; 125 g ai/ha) of the same molecule?
**A.** 100

**Q.** What about the “Plant response rating, Surinam Grass” value ([7]; 16 g ai/ha, scale of 0 to 100) of the same molecule?
**A.** 5

**Q.** What about the “Plant response rating, Surinam Grass” value ([7]; 31 g ai/ha, scale 0 to 100) of the same molecule?
**A.** 10

**Q.** What about the “Surinam Grass plant response rating” value [7, 18] of the same molecule?
**A.** 20

**Q.** What about the “Plant response rating, Field Violet” value ([8]; 16 g ai/ha, scale of 0 to 100) of the same molecule?
**A.** 75

**Q.** And the “Plant response rating, Field Violet” value ([8]; 31 g ai/ha, scale 0 to 100)?
**A.** 80

**Q.** And the “Field Violet plant response rating” value ([8]; 62 g ai/ha)?
**A.** 98

**Q.** And the “Field Violet plant response rating” value ([8]; 125 g ai/ha)?
**A.** 100

**Q.** What about the “Plant response rating, Poinsettia, Wild” value ([9]; 16 g ai/ha, scale of 0 to 100) of the same molecule?
**A.** 55

**Q.** What about the “Plant response rating, Poinsettia, Wild” value ([9]; 31 g ai/ha, scale 0 to 100) of the same molecule?
**A.** 65

**Q.** And the “Poinsettia, Wild plant response rating” value ([9]; 62 g ai/ha)?
**A.** 70

**Q.** What about the “Poinsettia, Wild plant response rating” value ([9]; 125 g ai/ha) of the same molecule?
**A.** 75

**Q.** And the “Plant response rating, Johnsongrass” value ([10]; 16 g ai/ha, scale of 0 to 100)?
**A.** 5

**Q.** And the “Plant response rating, Johnsongrass” value ([10]; 31 g ai/ha, scale 0 to 100)?
**A.** 5

**Q.** What about the “Johnsongrass plant response rating” value ([10]; 62 g ai/ha) of the same molecule?
**A.** 10

**Q.** And the “Johnsongrass plant response rating” value ([10]; 125 g ai/ha)?
**A.** 20

**Q.** And the “Plant response rating, Windgrass” value ([11]; 16 g ai/ha, scale of 0 to 100)?
**A.** 30

**Q.** What about the “Plant response rating, Windgrass” value ([11]; 31 g ai/ha, scale 0 to 100) of the same molecule?
**A.** 35

**Q.** And the “Windgrass plant response rating” value [11, 18]?
**A.** 40

**Q.** And the “Plant response rating, Geranium, Cutleaf” value ([12]; 16 g ai/ha, scale of 0 to 100)?
**A.** 30

**Q.** And the “Plant response rating, Geranium, Cutleaf” value ([12]; 31 g ai/ha, scale 0 to 100)?
**A.** 50

**Q.** What about the “Geranium, Cutleaf plant response rating” value ([12]; 62 g ai/ha) of the same molecule?
**A.** 60

**Q.** What about the “Geranium, Cutleaf plant response rating” value ([12]; 125 g ai/ha) of the same molecule?
**A.** 75

**Q.** And the “Plant response rating, Nightshade” value ([13]; 16 g ai/ha, scale of 0 to 100)?
**A.** 65

**Q.** What about the “Plant response rating, Nightshade” value ([13]; 31 g ai/ha, scale 0 to 100) of the same molecule?
**A.** 85

**Q.** And the “Nightshade plant response rating” value ([13]; 62 g ai/ha)?
**A.** 90

**Q.** And the “Nightshade plant response rating” value ([13]; 125 g ai/ha)?
**A.** 90

**Q.** What about the “Plant response rating, Field Poppy” value ([14]; 16 g ai/ha, scale of 0 to 100) of the same molecule?
**A.** 80

**Q.** What about the “Plant response rating, Field Poppy” value ([14]; 31 g ai/ha, scale 0 to 100) of the same molecule?
**A.** 90

**Q.** What about the “Field Poppy plant response rating” value ([14]; 62 g ai/ha) of the same molecule?
**A.** 90

**Q.** What about the “Field Poppy plant response rating” value ([14]; 125 g ai/ha) of the same molecule?
**A.** 100

**Q.** What about the “Plant response rating, Buckwheat, Wild” value ([15]; 16 g ai/ha, scale of 0 to 100) of the same molecule?
**A.** 75

**Q.** What about the “Plant response rating, Buckwheat, Wild” value ([15]; 31 g ai/ha, scale 0 to 100) of the same molecule?
**A.** 85

**Q.** What about the “Buckwheat, Wild plant response rating” value ([15]; 62 g ai/ha) of the same molecule?
**A.** 100

**Q.** And the “Buckwheat, Wild plant response rating” value ([15]; 125 g ai/ha)?
**A.** 100

**Q.** And the “Plant response rating, Johnsongrass” value ([16]; 31 g ai/ha, scale 0 to 100)?
**A.** 25

**Q.** What about the “Plant response rating, Johnsongrass” value ([16]; 62 g ai/ha, scale 0 to 100) of the same molecule?
**A.** 50

**Q.** And the “Plant response rating, Johnsongrass” value ([16]; 125 g ai/ha, scale of 0 to 100)?
**A.** 80

**Q.** What about the “Plant response rating, Poinsettia, Wild” value ([17]; 31 g ai/ha, scale 0 to 100) of the same molecule?
**A.** 5

**Q.** What about the “Plant response rating, Poinsettia, Wild” value ([17]; 62 g ai/ha, scale 0 to 100) of the same molecule?
**A.** 20

**Q.** What about the “Plant response rating, Poinsettia, Wild” value ([17]; 125 g ai/ha, scale of 0 to 100) of the same molecule?
**A.** 25
